Data on 23 compounds can be found in PubChem BioAssay AID330 (DTP/NCI, 2004).

This assay relates to P388 leukemia ip, CD2F1 mice, survival T/C. The assay is described as follows: NCI In Vivo Anticancer Drug Screen. Data for tumor model P388 Leukemia (intraperitoneal) in CD2F1 (CDF1) mice. Particulars: endpoint: median survival time, higher = longer survival. Summed up:
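Mice carrying the transplanted tumor received test compound or vehicle. Survival was recorded in each group, and the value is the treated-group measurement divided by that of the vehicle-treated control group.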

The mark [1] stands for this setting: dose: 6.25 mg/kg/injection, schedule: Q01DX005 (ip), vehicle: Klucel (hydroxypropylcellulose) (HPC).
[2] abbreviates: dose: 12.5 mg/kg/injection, schedule: Q01DX005 (ip), vehicle: Klucel (hydroxypropylcellulose) (HPC).
Setting [3] is: dose: 25.0 mg/kg/injection, schedule: Q01DX005 (ip), vehicle: Klucel (hydroxypropylcellulose) (HPC).
The mark [4] stands for this setting: dose: 50.0 mg/kg/injection, schedule: Q01DX005 (ip), vehicle: saline with Tween-80.
Setting [5] is: dose: 100.0 mg/kg/injection, schedule: Q01DX005 (ip), vehicle: saline with Tween-80.
[6] abbreviates: dose: 50.0 mg/kg/injection, schedule: Q01DX009 (ip), vehicle: saline with Tween-80.
Where [7] appears, read: dose: 100.0 mg/kg/injection, schedule: Q01DX009 (ip), vehicle: saline with Tween-80.
Setting [8] is: dose: 200.0 mg/kg/injection, schedule: Q01DX009 (ip), vehicle: saline with Tween-80.
Where [9] appears, read: dose: 100.0 mg/kg/injection, schedule: Q04DX003 (ip), vehicle: saline.
Setting [10] is: dose: 200.0 mg/kg/injection, schedule: Q04DX003 (ip), vehicle: saline.
Setting [11] is: dose: 100.0 mg/kg/injection, schedule: Q01DX009 (ip), vehicle: Klucel (hydroxypropylcellulose) (HPC).
Setting [12] is: dose: 200.0 mg/kg/injection, schedule: Q01DX009 (ip), vehicle: Klucel (hydroxypropylcellulose) (HPC).
Where [13] appears, read: dose: 50.0 mg/kg/injection, schedule: Q01DX005 (ip), vehicle: Klucel (hydroxypropylcellulose) (HPC).
Where [14] appears, read: dose: 100.0 mg/kg/injection, schedule: Q01DX005 (ip), vehicle: Klucel (hydroxypropylcellulose) (HPC).
[15] abbreviates: dose: 200.0 mg/kg/injection, schedule: Q01DX005 (ip), vehicle: Klucel (hydroxypropylcellulose) (HPC).
Setting [16] is: dose: 60.0 mg/kg/injection, schedule: Q01DX005 (ip), vehicle: saline with Tween-80.
Setting [17] is: dose: 120.0 mg/kg/injection, schedule: Q01DX005 (ip), vehicle: saline with Tween-80.

Where “and” joins values, the source holds several entries; their conditions need not be identical. Equal values may be shown once. Inconclusive results and toxic doses are left out. Peptide text beside a SMILES is read from it.

On to `O=C1C(c2ccccc2)=S=C2C=Cc3ccccc3N12`, for which the T/C was 109 % of control (dose: 100.0 mg/kg/injection, schedule: Q01DX001 (ip), vehicle: saline with Tween-80); 111 % of control (dose: 200.0 mg/kg/injection, schedule: Q01DX001 (ip), vehicle: saline with Tween-80); 116 % of control (dose: 400.0 mg/kg/injection, schedule: Q01DX001 (ip), vehicle: saline with Tween-80).

Regarding `CN(C)CCCOc1ccccc1NC1=C(Cl)C(=O)C(Nc2ccccc2OCCCN(C)C)=C(Cl)C1=O`, the T/C is 108 % of control under setting [1], 99 % of control under setting [2] and 97 % of control under setting [3].

Take `CC(C)(C)NC(=O)N1C2C3CCC(C)(OC3(C)C)C21` (stereo unspecified): the T/C is, setting by setting: under setting [4], 98 % of control; under setting [5], 99 % of control.

On to `O=S(=O)(O)c1c(O)c2ccccc2c2nc3ccccc3nc12`, for which the T/C (dose: 50.0 mg/kg/injection, schedule: Q01DX007 (ip), vehicle: saline) is 105 % of control and the T/C (dose: 100.0 mg/kg/injection, schedule: Q01DX007 (ip), vehicle: saline) was 87 % of control.

Consider `COc1ccc2c(C)cc(=O)oc2c1OCC(O)CN1CCOCC1` (stereo unspecified), for which the T/C (dose: 60.0 mg/kg/injection, schedule: Q01DX005 (ip), vehicle: saline) was 110 % of control; the T/C (dose: 120.0 mg/kg/injection, schedule: Q01DX005 (ip), vehicle: saline) was 104 % of control; the T/C (dose: 240.0 mg/kg/injection, schedule: Q01DX005 (ip), vehicle: saline) was 103 % of control.

Take `COc1ccc2nc3cc(Cl)ccc3c(NCCCCCCCCNc3c4ccc(Cl)cc4nc4ccc(OC)cc34)c2c1`: the T/C was 101 % of control (dose: 0.62 mg/kg/injection, schedule: Q01DX009 (ip), vehicle: other); 101 % of control (dose: 1.25 mg/kg/injection, schedule: Q01DX009 (ip), vehicle: other); 104 % of control (dose: 2.5 mg/kg/injection, schedule: Q01DX009 (ip), vehicle: other); 100 % of control (dose: 5.0 mg/kg/injection, schedule: Q01DX009 (ip), vehicle: other); 97 % of control (dose: 10.0 mg/kg/injection, schedule: Q01DX009 (ip), vehicle: other); 109 % of control (dose: 20.0 mg/kg/injection, schedule: Q01DX009 (ip), vehicle: other).

Turning to `CCN(CC)CCOC(=O)c1ccc(N=C/C=C/C(C#N)=C/NOC)cc1`, the T/C is 113 % of control under setting [6], 101 % of control under setting [7] and 103 % of control under setting [8].

In the case of `C[C@H](N)C(=O)N[C@@H]1[C@H]2C(=C(O)C[C@@H](O)[C@@H]2O)C(=O)O[C@@H]1C`, the T/C is, setting by setting: (dose: 150.0 mg/kg/injection, schedule: Q01DX005 (ip), vehicle: saline) 115 % of control; (dose: 600.0 mg/kg/injection, schedule: Q01DX005 (ip), vehicle: suspension in saline) 153 % of control.

For the compound `CNC(=S)N/N=C(C)\C=N/Nc1cccc(Cl)c1`, the T/C under setting [9] is 92 % of control; the T/C under setting [10] is 93 % of control; the T/C (dose: 400.0 mg/kg/injection, schedule: Q04DX003 (ip), vehicle: saline) was 100 % of control.

In the case of `O=C(O)C(S)c1ccc2ccccc2c1` (stereo unspecified), the T/C is, setting by setting: under setting [11], 90 % of control; under setting [12], 100 % of control.

On to `Cc1nn(Cc2ccccc2)c(C)c1-c1c(C)nn(Cc2ccccc2)c1C`, for which the T/C is 104 % of control under setting [13], 103 % of control under setting [14] and 99 % of control under setting [15].

On to `[CH3][Sn]([CH3])([n]1cnc(N)nc1=O)[n]1cnc(N)nc1=O`, for which the T/C runs as follows: under setting [1], 108 % of control; under setting [2], 120 % of control and 90 % of control; under setting [3], 112 % of control and 113 % of control; under setting [13], 105 % of control and 118 % of control.

Take `CC(S)C(N)C(=O)O` (stereo unspecified): the T/C was 100 % of control (dose: 50.0 mg/kg/injection, schedule: Q01DX009 (ip), vehicle: saline); 95 % of control (dose: 100.0 mg/kg/injection, schedule: Q01DX009 (ip), vehicle: saline); 105 % of control and 94 % of control (dose: 100.0 mg/kg/injection, schedule: Q04DX002 (ip), vehicle: saline with Tween-80); 97 % of control (dose: 200.0 mg/kg/injection, schedule: Q01DX009 (ip), vehicle: saline); 114 % of control and 90 % of control (dose: 200.0 mg/kg/injection, schedule: Q04DX002 (ip), vehicle: saline with Tween-80); 114 % of control and 89 % of control (dose: 400.0 mg/kg/injection, schedule: Q04DX002 (ip), vehicle: saline with Tween-80).

As to `Cc1cc(Cl)ccc1NC(=O)NC(C)(C)COC(=O)Nc1cccc(Cl)c1`, the T/C reads like this: (dose: 15.0 mg/kg/injection, schedule: Q01DX005 (ip), vehicle: saline with Tween-80) 99 % of control; (dose: 30.0 mg/kg/injection, schedule: Q01DX005 (ip), vehicle: saline with Tween-80) 94 % of control; under setting [16], 90 % of control; under setting [17], 86 % of control.

As for `Nc1nc(=O)n(C2CCCCO2)cc1I` (stereo unspecified), the T/C was 105 % of control under setting [13], 102 % of control under setting [14] and 111 % of control under setting [15].

Consider `NCCCCC(NC(=O)C(N)CCCN=C(N)N)C(=O)O` (stereo not drawn) (H-Arg-Lys-OH; configuration not given here), for which the T/C by setting is: (dose: 50.0 mg/kg/injection, schedule: Q01DX005 (ip), vehicle: saline) 94 % of control; (dose: 100.0 mg/kg/injection, schedule: Q01DX005 (ip), vehicle: saline) 106 % of control; (dose: 200.0 mg/kg/injection, schedule: Q01DX005 (ip), vehicle: saline) 100 % of control.

Consider `O=C(O)c1cc(-n2c(-c3ccccc3)cc3c2CCc2ccccc2-3)ccc1O`, for which the T/C runs as follows: under setting [4], 109 % of control; under setting [5], 110 % of control.

As for `COc1cc(C=Nc2ccc3c(c2)OCO3)cc(OC)c1OC`, the T/C is, setting by setting: under setting [16], 103 % of control; under setting [17], 100 % of control; (dose: 240.0 mg/kg/injection, schedule: Q01DX005 (ip), vehicle: saline with Tween-80) 86 % of control.

For `Nc1nc(N)c2cc(Sc3ccc4ccccc4c3)ccc2n1`, the T/C under setting [6] is 119 % of control and the T/C under setting [8] is 119 % of control.

As to `CCN(CC)CCC(=O)Nc1cccc2c1C(=O)c1c(c(O)c3ccccc3c1O)C2=O`, the T/C (dose: 6.25 mg/kg/injection, schedule: Q04DX003 (ip), vehicle: Klucel (hydroxypropylcellulose) (HPC)) is 100 % of control; the T/C (dose: 12.5 mg/kg/injection, schedule: Q04DX003 (ip), vehicle: Klucel (hydroxypropylcellulose) (HPC)) was 100 % of control; the T/C (dose: 25.0 mg/kg/injection, schedule: Q04DX003 (ip), vehicle: Klucel (hydroxypropylcellulose) (HPC)) was 104 % of control; the T/C (dose: 25.0 mg/kg/injection, schedule: Q04DX003 (ip), vehicle: saline) was 98 % of control; the T/C (dose: 50.0 mg/kg/injection, schedule: Q04DX003 (ip), vehicle: Klucel (hydroxypropylcellulose) (HPC)) was 100 % of control; the T/C (dose: 50.0 mg/kg/injection, schedule: Q04DX003 (ip), vehicle: saline) was 92 % of control. Further, the T/C reads like this: (dose: 100.0 mg/kg/injection, schedule: Q04DX003 (ip), vehicle: Klucel (hydroxypropylcellulose) (HPC)) 106 % of control; under setting [9], 108 % of control; under setting [10], 100 % of control.

Consider `NC1[N-]C(C2CCCC[N-]2)CC2CCCCC21.O=[N+]([O-])O.O=[N+]([O-])O.[Cu+2]` (stereo unspecified), for which the T/C reads like this: (dose: 6.25 mg/kg/injection, schedule: Q04DX002 (ip), vehicle: suspension in saline) 103 % of control; (dose: 12.5 mg/kg/injection, schedule: Q04DX002 (ip), vehicle: suspension in saline) 111 % of control.

Take `CCOC(=O)c1ccc(N(CC)CC)cc1`: the T/C is, setting by setting: under setting [7], 100 % of control; under setting [8], 104 % of control; (dose: 400.0 mg/kg/injection, schedule: Q01DX009 (ip), vehicle: saline with Tween-80) 100 % of control.

Regarding `O=P(c1ccccc1)(c1ccccc1)C(O)c1ccncc1` (stereo unspecified), the T/C reads like this: (dose: 50.0 mg/kg/injection, schedule: Q01DX009 (ip), vehicle: Klucel (hydroxypropylcellulose) (HPC)) 102 % of control; under setting [11], 103 % of control; under setting [12], 103 % of control.
